Reference: paper PMC10174317, “^18F-labeled FGFR1 peptide: a new PET probe for subtype FGFR1 receptor imaging” (Frontiers in Oncology, 2023)
Where a SMILES comes first, the peptide text is derived from it. The star is where a group is joined. NOTA = O=C(O)CN1CCN(CC(=O)O)CCN(CC(=O)*)CC1; AEEA = NCCOCCOCC(=O)O

Tests used:
[1] = Micro-PET/CT biodistribution in A549 xenografts; format: in vivo, BALB/c nude mice; details: female, BALB/c nude, mouse, iv, total radioactivity, 11.1 MBq tail vein, micro-PET/CT ROI, mean ± SD; for tissue uptake at 0.5 h: 30 min post-injection; for tissue uptake at 1 h: 60 min post-injection; for tissue uptake at 2 h: 120 min post-injection
Description: (§1) All animal experiments were carried out in accordance with the Laboratory Animal Ethical Review of Animal Guidelines of China. BALB/c nude mice (sex, female; age, 4 weeks, body weight range, 19-21 g; China) were used for this study. Four cell lines (2*10^7 cells/nude mouse) were subcutaneously injected into the right forelimb to induce solid tumors. All xenograft nude mice were housed in laminar flow cabinets in a specific pathogen-free (SPF) environment and were provided ad libitum access to food and water at the Laboratory Animal Center of the Fourth Hospital of Hebei Medical University (China). The indication for micro-PET/CT imaging was xenografts with a tumor volume of 50-130 mm^3. All animal experiments strictly adhered to the Principles of the Laboratory Animal Ethical Committee of the Fourth Hospital Hebei Medical University (No. 2020016).
(§2) Xenograft mice (n=5) were fastly injected of 200 µl of [^18F]F-FGFR1 (11.1 MBq) through tail vein. For the in vivo blocking study, RT-112 (FGFR1-high expression) tumor-bearing mice (n = 5) were injected with a tracer that was mixed with 200-fold (1.58 mg) unlabeled peptide to saturate the receptors in the tumors. Mice were anesthetized via 3% isoflurane inhalation (RWD Life Science Inc. China) for induction and 2% isoflurane inhalation for maintenance. Micro-PET/CT imaging was performed on a micro-PET/SPECT/CT machine (NOVEL MEDICAL Equipment Ltd. China). Whole-body scans were performed 30, 60 and 120 min after tracer administration. The CT scanning parameters were 80 kV, 0.5 mA, 2000 ms/frames, and 360 frames; the images were reconstructed with a 512*512 matrix and a slice thickness of 0.18 mm. PET images were acquired with a 140*140 matrix and 10 min of total acquisition time. Reconstructed images were processed with the comprehensive image analysis software Pmod v4.201 (PMOD Technologies LLC. Switzerland). The biodistribution of the major organs (brain, heart, lung, liver, kidney, bone and muscle) and tumor were analyzed by manually outlining the regions of interest (ROIs) of the entire organs and tissue at each time point of the micro-PET/CT scan. The radioactivity accumulated in bone and muscle was measured in the limbs without xenograft tumors.

[2] = In vitro stability in normal saline (RP-HPLC); format: physicochemical; details: 37°C, 1, 2, 4 and 6 h
Description: (§3) The in vitro and in vivo stability of [^18F]F-FGFR1 was evaluated by RP-HPLC analysis. […] The radiochemical purity of the final compounds was determined by RP-HPLC.

[3] = In vivo radiochemical stability, urine of xenograft nude mice (RP-HPLC); details: urine of xenograft nude mice 60 min after injection of 7.4 MBq; one peak at 5.7 min; fluorine-18 at 4 min
Description: For the in vivo radiochemical stability experiment, urine samples were obtained from xenograft nude mice 60 min after injection of 150 µl (7.4 MBq, 2.53 GBq/μmol) [^18F]F-FGFR1 and analyzed by RP-HPLC.

[4] = In vitro stability in fresh human serum (RP-HPLC); format: in vitro ADME; details: 37°C, 1, 2, 4 and 6 h
Description: as §3

[5] = Micro-PET/CT biodistribution in SNU-16 xenografts; format: in vivo, BALB/c nude mice; details: female, BALB/c nude, mouse, iv, total radioactivity, 11.1 MBq tail vein, micro-PET/CT ROI, mean ± SD; for tissue uptake at 0.5 h: 30 min post-injection; for tissue uptake at 1 h: 60 min post-injection; for tissue uptake at 2 h: 120 min post-injection
Description: as §1, §2

[6] = tested on: RT-112 cells (FGFR1-high expression); assay: Cellular uptake and blocking study; format: cell-based, human
Description: RT-112, A549, SNU-16 and Calu-3 cells were cultured at a density of 1*10^5 cells per well in 24-well plates the day before cellular uptake experiments. Cells were rinsed twice with 1000 µl of phosphate-buffered saline (PBS) (BI, Israel), followed by 1000 µl of growth medium. Then, 30 µl (111 KBq, 1.81-2.53 GBq/μmol) of [^18F]F-FGFR1 was added to each well, and the cells were incubated with the peptide for 15, 30, 60 and 120 min. At each cutoff time, 6 wells of supernatant were collected. The collected wells were washed twice with 1000 µl of PBS. Radioactivity counts were marked as Cout. […] After 500 µl of trypsin-EDTA digestion of the adherent cells and washed twice with 1000 µl of PBS, the collected cells were defined as Cin. Radioactivity was counted with an automatic γ counter. The formula for the cell uptake rate was as follows: Cin/(Cin + Cout).
To determine the specific binding of [^18F]F-FGFR1 with FGFR1 on the cell surface, 200-fold unlabeled peptide (220 µg) and 30 µl of [^18F]F-FGFR1 (111 KBq) were added to RT-112 cells at the same time. The supernatants were removed after 120 min of incubation. The subsequent steps of cell collection and radioactivity detection were performed as described above. The cell uptake rate was calculated by Cin/(Cin + Cout).

[7] = bone, n=5, read-out: Biodistribution, Bone
[8] = brain, n=5, read-out: Biodistribution, Brain
[9] = heart, n=5, read-out: Biodistribution, Heart
[10] = kidney, n=5, read-out: Biodistribution, Kidney
[11] = liver, n=5, read-out: Biodistribution, Liver
[12] = lung, n=5, read-out: Biodistribution, Lung
[13] = muscle, n=5, read-out: Biodistribution, Muscle
[14] = tumor, n=5, read-out: Biodistribution, Tumor

For `CC(C)C[C@H](NC(=O)[C@H](CO)NC(=O)[C@H](CCCCN)NC(=O)[C@H](Cc1c[nH]c2ccccc12)NC(=O)[C@H](CCC(=O)O)NC(=O)[C@H](C)NC(=O)[C@H](CCCCN)NC(=O)COCCOCCNC(=O)CN1CCN(CC(=O)O)CCN(CC(=O)O)CC1)C(=O)NCC(=O)N[C@@H](CCC(=O)O)C(=O)N[C@@H](CCC(=O)O)C(=O)N[C@@H](C)C(=O)N[C@@H](Cc1c[nH]c2ccccc12)C(=O)N[C@@H](Cc1c[nH]cn1)C(=O)N[C@@H](CO)C(=O)N[C@@H](CCCCN)C(=O)O` [[^18F]F-FGFR1] ({NOTA-AEEA}-KAEWKSLGEEAWHSK-OH; N-terminus and C-terminus assumed), the tissue uptake at 0.5 h [1, 7] was 0.33 ± 0.1 %ID/g, the tissue uptake at 1 h [1, 7] was 0.35 ± 0.06 %ID/g and the tissue uptake at 2 h [1, 7] was 0.39 ± 0.02 %ID/g. The tissue uptake at 0.5 h [1, 8] was 0.61 ± 0.06 %ID/g, the tissue uptake at 1 h [1, 8] was 0.72 ± 0.13 %ID/g and the tissue uptake at 2 h [1, 8] was 0.64 ± 0.17 %ID/g. The tissue uptake at 0.5 h [1, 9] was 0.9 ± 0.09 %ID/g, the tissue uptake at 1 h [1, 9] was 0.88 ± 0.04 %ID/g and the tissue uptake at 2 h [1, 9] was 0.64 ± 0.07 %ID/g. The tissue uptake at 0.5 h [1, 10] was 9.35 ± 1.87 %ID/g, the tissue uptake at 1 h [1, 10] was 7.89 ± 1.06 %ID/g and the tissue uptake at 2 h [1, 10] was 4.46 ± 0.6 %ID/g. For the same compound, the tissue uptake at 0.5 h [1, 11] was 1.53 ± 0.11 %ID/g, the tissue uptake at 1 h [1, 11] was 1.52 ± 0.18 %ID/g and the tissue uptake at 2 h [1, 11] was 1.58 ± 0.08 %ID/g. For the same compound, the tissue uptake at 0.5 h [1, 12] was 0.69 ± 0.12 %ID/g, the tissue uptake at 1 h [1, 12] was 0.65 ± 0.04 %ID/g and the tissue uptake at 2 h [1, 12] was 0.53 ± 0.07 %ID/g. It also gave a tissue uptake at 0.5 h [1, 13] of 0.27 ± 0.03 %ID/g, a tissue uptake at 1 h [1, 13] of 0.27 ± 0.02 %ID/g and a tissue uptake at 2 h [1, 13] of 0.28 ± 0.02 %ID/g. For the same compound, the tissue uptake at 0.5 h [1, 14] was 0.87 ± 0.08 %ID/g, the tissue uptake at 1 h [1, 14] was 0.64 ± 0.08 %ID/g and the tissue uptake at 2 h [1, 14] was 0.53 ± 0.04 %ID/g. The “Radiochemical purity after incubation (in vitro stability)” value [2] was “exceeded 90%”, the “In vivo radiochemical stability (RP-HPLC of urine)” value [3] was “no peak corresponded to fluorine-18” and the “Radiochemical purity after incubation (in vitro stability)” value [4] was “exceeded 90%”. It also gave a tissue uptake at 0.5 h [5, 7] of 0.38 ± 0.1 %ID/g, a tissue uptake at 1 h [5, 7] of 0.37 ± 0.05 %ID/g and a tissue uptake at 2 h [5, 7] of 0.41 ± 0.02 %ID/g. For the same compound, the tissue uptake at 0.5 h [5, 8] was 0.56 ± 0.06 %ID/g, the tissue uptake at 1 h [5, 8] was 0.6 ± 0.07 %ID/g and the tissue uptake at 2 h [5, 8] was 0.56 ± 0.1 %ID/g. It also gave a tissue uptake at 0.5 h [5, 9] of 0.7 ± 0.09 %ID/g, a tissue uptake at 1 h [5, 9] of 0.62 ± 0.09 %ID/g and a tissue uptake at 2 h [5, 9] of 0.55 ± 0.06 %ID/g. It also gave a tissue uptake at 0.5 h [5, 10] of 8.04 ± 0.97 %ID/g, a tissue uptake at 1 h [5, 10] of 7.43 ± 0.83 %ID/g and a tissue uptake at 2 h [5, 10] of 4.23 ± 0.7 %ID/g. The tissue uptake at 0.5 h [5, 11] was 1.54 ± 0.11 %ID/g, the tissue uptake at 1 h [5, 11] was 1.57 ± 0.12 %ID/g and the tissue uptake at 2 h [5, 11] was 1.45 ± 0.1 %ID/g. The tissue uptake at 0.5 h [5, 12] was 0.67 ± 0.08 %ID/g, the tissue uptake at 1 h [5, 12] was 0.6 ± 0.03 %ID/g and the tissue uptake at 2 h [5, 12] was 0.46 ± 0.09 %ID/g. It also gave a tissue uptake at 0.5 h [5, 13] of 0.27 ± 0.06 %ID/g, a tissue uptake at 1 h [5, 13] of 0.27 ± 0.03 %ID/g and a tissue uptake at 2 h [5, 13] of 0.31 ± 0.02 %ID/g. The tissue uptake at 0.5 h [5, 14] was 0.66 ± 0.05 %ID/g, the tissue uptake at 1 h [5, 14] was 0.6 ± 0.06 %ID/g and the tissue uptake at 2 h [5, 14] was 0.45 ± 0.04 %ID/g. For the same compound, the “Cellular uptake in RT-112 versus A549, SNU-16 and Calu-3 cells” value ([6]; 15, 30, 60 and 120 min incubation, P < 0.001, n = 6) was “consistently higher in RT-112 cell line”, the “Cell uptake rate Cin/(Cin + Cout), blocked” value ([6]; RT-112 cells, 111 KBq tracer with 200-fold excess unlabeled peptide (220 µg), 120 min, mean ± SD, n = 6) was 0.24 ± 0.05 and the “Cell uptake rate Cin/(Cin + Cout)” value ([6]; RT-112 cells, 111 KBq tracer, 120 min incubation, γ counter, mean ± SD, n = 6) was 5.11 ± 0.63.
